# Measurements reported in ChEMBL document CHEMBL1158408, “Large-scale application of high-throughput molecular mechanics with Poisson-Boltzmann surface area for routine physics-based scoring of protein-ligand complexes” (J Med Chem, 2009).
# Target: T1, Tyrosine-protein phosphatase non-receptor type 1 (Homo sapiens, UniProt P18031)
# T1 sequence (P18031 whole entry): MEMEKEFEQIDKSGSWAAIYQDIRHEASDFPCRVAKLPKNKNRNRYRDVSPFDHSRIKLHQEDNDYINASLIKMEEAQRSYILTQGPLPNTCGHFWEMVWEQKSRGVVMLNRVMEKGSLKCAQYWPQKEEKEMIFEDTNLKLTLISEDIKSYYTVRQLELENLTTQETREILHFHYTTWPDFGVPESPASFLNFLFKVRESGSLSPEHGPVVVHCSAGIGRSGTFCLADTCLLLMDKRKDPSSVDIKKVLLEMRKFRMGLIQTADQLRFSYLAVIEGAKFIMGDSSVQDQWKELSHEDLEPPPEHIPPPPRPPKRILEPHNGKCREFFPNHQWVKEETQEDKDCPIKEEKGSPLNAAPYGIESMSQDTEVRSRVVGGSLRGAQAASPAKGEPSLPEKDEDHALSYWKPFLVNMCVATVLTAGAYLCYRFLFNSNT
row,Compound,Ki
1,O=C(O)c1cc(-c2ccccc2NCCO)on1,1000 µM
2,COC(=O)c1c(O)cccc1OCCCCNC(=O)C(Cc1ccc(N(CC(Cc2ccccc2)C(=O)O)C(=O)C(=O)O)cc1)NC(=O)OC(C)(C)C (stereo not drawn),5.01 µM
3,O=C(O)c1noc(-c2cccc(I)c2)c1CO,126 µM
4,O=C(O)C(=O)N(c1ccccc1/C=C/CO)c1ccccc1C(=O)O,50.1 µM
5,O=C(O)C(=O)N(c1ccccc1Cc1ccccc1)c1ccccc1C(=O)O,25.1 µM
6,O=C(O)C(=O)N(c1ccccc1C(=O)O)c1cccc2c1CCCC2,79.4 µM
7,CCCC(=O)Nc1cccc(-c2cc(C(=O)O)no2)c1,126 µM
8,COc1ccc2c(c1)-c1onc(C(=O)O)c1CC2,631 µM
9,COCCC(CN(C(=O)C(=O)O)c1ccc(CC(NC(=O)OC(C)(C)C)C(=O)NCCCCOc2cccc(O)c2C(=O)OC)cc1)C(=O)O (stereo not drawn),7.94 µM
10,O=C(O)C(=O)N(c1ccc2c(c1)OCCO2)c1ccccc1C(=O)O,100 µM
11,CC(C)(C)OC(=O)Nc1ccc(O)c(-c2cc(C(=O)O)no2)c1,794 µM
12,O=C(O)C(=O)N(c1ccccc1C(=O)O)c1cc([N+](=O)[O-])cc2ccccc12,10 µM
13,O=C(O)C(=O)N(c1ccccc1C(=O)O)c1c(O)ccc2ccccc12,7.94 µM
14,CCCCCCNC(=O)Nc1ccc(N(C(=O)C(=O)O)c2ccccc2C(=O)O)c2ccccc12,6.31 µM
15,N#Cc1ccc(C(=O)O)c(N(C(=O)C(=O)O)c2cccc3ccc(O)cc23)c1,3.98 µM
16,CNC(=O)c1c(O)cccc1OC/C=C/c1cccc(-c2cc(C(=O)O)no2)c1,6.31 µM
17,CCc1ccccc1N(C(=O)C(=O)O)c1ccccc1C(=O)O,39.8 µM
18,O=C(O)C(=O)N(c1ccccc1C(=O)O)c1ccccc1N1CCC(CO)CC1,12.6 µM

# Other lines, results leading:
row,Ki,Compound
1,1.26 µM,CCCCCNC(=O)[C@H](Cc1ccc(N(C(=O)C(=O)O)c2ccccc2C(=O)O)c(/C=C/C(N)=O)c1)NC(=O)OC(C)(C)C
2,0.158 µM,CCc1cc(CC(NC(C)=O)C(=O)NCCCCC(=O)N[C@@H](Cc2ccc(O)cc2)C(=O)O)ccc1N(C(=O)C(=O)O)c1ccccc1C(=O)O (stereo partly drawn)
3,0.2 µM,CC[C@H](C)[C@H](NC(=O)CCCCNC(=O)C(Cc1ccc(N(C(=O)C(=O)O)c2ccccc2C(=O)O)c2ccccc12)NC(C)=O)C(=O)O (stereo partly drawn)
4,0.126 µM,C=CCOC(=O)N[C@@H](Cc1ccc(N(C(=O)C(=O)O)c2ccccc2C(=O)O)cc1)C(=O)NCCCCOc1cccc(O)c1C(=O)OC
5,0.398 µM,CCc1cc(CC(NC(C)=O)C(=O)NCCCCC(=O)N[C@@H](CCS(C)(=O)=O)C(=O)O)ccc1N(C(=O)C(=O)O)c1ccccc1C(=O)O (stereo partly drawn)
6,0.631 µM,COC(=O)c1c(O)cccc1OCCCCNCCCc1ccc(N(C(=O)C(=O)O)c2ccccc2C(=O)O)c2ccccc12
7,3.98 µM,CC[C@H](C)[C@H](NC(=O)CCCCNC(=O)[C@@H](Cc1ccc(N(C(=O)C(=O)O)c2ccccc2C(=O)O)cc1)NC(C)=O)C(=O)O
8,0.126 µM,CCSCC[C@H](NC(=O)CCCCNC(=O)C(Cc1ccc(N(C(=O)C(=O)O)c2ccccc2C(=O)O)c(CC)c1)NC(C)=O)C(=O)O (stereo partly drawn)
9,0.1 µM,CCCC[C@H](NC(=O)CCCCNC(=O)C(Cc1ccc(N(C(=O)C(=O)O)c2ccccc2C(=O)O)c(CC)c1)NC(C)=O)C(=O)O (stereo partly drawn)
10,0.02 µM,"CC(=O)NC(Cc1ccc(N(C(=O)C(=O)O)c2ccccc2C(=O)O)c2ccccc12)C(=O)NCCCCCOc1cc2ccccc2cc1C(=O)O (single isomer, unassigned)"
11,3.98 µM,COC(=O)N[C@H](Cc1ccc(N(C(=O)C(=O)O)c2ccccc2C(=O)O)cc1)C(=O)NCCCCOc1cc(OC(C)C)cc(O)c1C(=O)OC
12,0.398 µM,CCc1cc(CC(NC(C)=O)C(=O)NCCCCC(=O)NC(Cc2cccs2)C(=O)O)ccc1N(C(=O)C(=O)O)c1ccccc1C(=O)O (stereo not drawn)
13,0.126 µM,CCc1cc(CC(NC(C)=O)C(=O)NCCCCC(=O)N[C@@H](Cc2ccccc2)C(=O)O)ccc1N(C(=O)C(=O)O)c1ccccc1C(=O)O (stereo partly drawn)
14,0.251 µM,CCc1cc(CC(NC(C)=O)C(=O)NCCCCC(=O)NC(C(=O)O)c2c[nH]c3ccccc23)ccc1N(C(=O)C(=O)O)c1ccccc1C(=O)O (stereo not drawn)
15,0.316 µM,COC(=O)c1c(O)cccc1OCCCCNC(C)CCc1ccc(N(C(=O)C(=O)O)c2ccccc2C(=O)O)c2ccccc12 (stereo not drawn)
